Experimental data reported in publication PMC11879040, “Advancing systemic toxicity risk assessment: Evaluation of a NAM-based toolbox approach” (Toxicological Sciences, 2024).
Like-named read-outs stand apart in the source and are kept apart here.

Columns and labels:
[1] = molecular target: T1, Muscarinic acetylcholine receptor M1, CHRM1 (h) (Homo sapiens, UniProt P11229); type: binding; conditions: control pirenzepine
T1 construct: purchased Eurofins Cerep (SafetyScreen44-based IPP panel)
T1 sequence (P11229 1-460): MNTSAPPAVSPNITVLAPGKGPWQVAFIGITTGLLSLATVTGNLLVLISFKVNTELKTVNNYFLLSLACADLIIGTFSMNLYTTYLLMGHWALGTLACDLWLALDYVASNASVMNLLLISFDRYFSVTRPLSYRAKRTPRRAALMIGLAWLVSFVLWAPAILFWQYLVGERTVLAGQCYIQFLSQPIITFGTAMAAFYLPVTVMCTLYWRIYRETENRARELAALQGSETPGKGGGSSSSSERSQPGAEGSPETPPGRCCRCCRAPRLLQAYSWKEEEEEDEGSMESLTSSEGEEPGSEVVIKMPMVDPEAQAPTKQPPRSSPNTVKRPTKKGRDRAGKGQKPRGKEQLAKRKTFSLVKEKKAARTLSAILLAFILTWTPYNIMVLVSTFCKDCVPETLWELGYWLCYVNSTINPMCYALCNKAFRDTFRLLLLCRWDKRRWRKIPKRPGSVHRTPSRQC

[2] = molecular target: Glucocorticoid receptor, NR3C1 (h) (Homo sapiens, UniProt P04150); test: IPP NR3C1 binding (agonist radioligand); conditions: IPP screening at 10 uM; control dexamethasone
[3] = tested on: Glutamate receptor ionotropic NMDA 1 non-selective, GRIN1 (r)
[4] = molecular target: Beta-1 adrenergic receptor, ADRB1 (h) (Homo sapiens, UniProt P08588); conditions: control atenolol
dog = conditions: ref ToxRefDB/Paul-Friedman et al. (2020)/regulatory opinions, cited from earlier work
[5] = cited from earlier work
[6] = molecular target: T2, Progesterone receptor, PGR (h) (Homo sapiens, UniProt P06401); test: biochemical; type: biochemical; conditions: agonist, progesterone for control
T2 sequence (P06401 1-933): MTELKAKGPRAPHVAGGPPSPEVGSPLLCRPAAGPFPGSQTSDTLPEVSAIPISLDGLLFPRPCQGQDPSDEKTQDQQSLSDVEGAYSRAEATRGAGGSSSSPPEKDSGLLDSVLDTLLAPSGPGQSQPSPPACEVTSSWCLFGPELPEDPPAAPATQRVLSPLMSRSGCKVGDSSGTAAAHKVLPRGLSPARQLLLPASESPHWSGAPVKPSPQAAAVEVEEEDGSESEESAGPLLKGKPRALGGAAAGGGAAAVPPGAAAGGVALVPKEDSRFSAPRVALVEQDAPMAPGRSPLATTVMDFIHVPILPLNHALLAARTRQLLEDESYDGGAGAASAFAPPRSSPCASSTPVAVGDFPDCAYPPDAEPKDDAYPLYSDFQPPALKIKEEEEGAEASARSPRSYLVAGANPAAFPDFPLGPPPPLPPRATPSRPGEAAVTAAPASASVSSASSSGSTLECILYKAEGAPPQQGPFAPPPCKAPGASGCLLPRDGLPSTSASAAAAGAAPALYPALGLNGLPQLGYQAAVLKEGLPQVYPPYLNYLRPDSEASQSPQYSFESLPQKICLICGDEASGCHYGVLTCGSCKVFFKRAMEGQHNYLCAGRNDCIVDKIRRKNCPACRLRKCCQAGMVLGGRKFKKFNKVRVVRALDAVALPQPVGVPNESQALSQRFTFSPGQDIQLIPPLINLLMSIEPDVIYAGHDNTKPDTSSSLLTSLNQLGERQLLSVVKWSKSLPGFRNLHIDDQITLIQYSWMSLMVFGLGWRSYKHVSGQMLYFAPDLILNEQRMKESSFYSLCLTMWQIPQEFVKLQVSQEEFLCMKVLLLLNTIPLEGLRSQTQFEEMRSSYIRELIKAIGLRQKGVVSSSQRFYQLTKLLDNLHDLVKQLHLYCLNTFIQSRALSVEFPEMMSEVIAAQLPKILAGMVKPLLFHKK

[7] = molecular target: T2, Progesterone receptor, PGR (h); test: IPP PGR coactivator recruitment (antagonist); type: biochemical; conditions: ligand progesterone
[8] = molecular target: T3, Peroxisome proliferator-activated receptor gamma, PPARG (h) (Homo sapiens, UniProt P37231); test: IPP PPARG coactivator recruitment (agonist); type: biochemical; conditions: 10 uM, rosiglitazone for control
T3 sequence (P37231 1-505): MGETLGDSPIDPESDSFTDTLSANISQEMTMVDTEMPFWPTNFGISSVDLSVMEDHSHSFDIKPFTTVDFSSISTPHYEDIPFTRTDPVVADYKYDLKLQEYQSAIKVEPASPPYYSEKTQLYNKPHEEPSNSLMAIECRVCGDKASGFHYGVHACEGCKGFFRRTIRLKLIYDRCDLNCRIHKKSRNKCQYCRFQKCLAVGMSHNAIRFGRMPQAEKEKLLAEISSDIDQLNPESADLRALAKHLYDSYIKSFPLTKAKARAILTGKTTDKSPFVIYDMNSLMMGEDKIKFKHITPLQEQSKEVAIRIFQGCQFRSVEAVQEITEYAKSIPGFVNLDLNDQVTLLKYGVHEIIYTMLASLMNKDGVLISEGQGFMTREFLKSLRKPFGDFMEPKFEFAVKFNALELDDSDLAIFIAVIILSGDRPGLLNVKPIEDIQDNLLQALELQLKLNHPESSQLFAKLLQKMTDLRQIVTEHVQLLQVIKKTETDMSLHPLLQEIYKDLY

[9] = molecular target: T4, Thyroid hormone receptor beta, THRB (h) (Homo sapiens, UniProt P10828); test: IPP THRB coactivator recruitment (agonist); type: biochemical; conditions: 10 uM, T3
T4 construct: purchased Eurofins Cerep (SafetyScreen44-based IPP panel)

[10] = IPP screening at 10 uM, control CGS 19755
[11] = human, Oral 100 mg, Tablet, 27 healty male, Fasted, validation, ref Shank, R.P. et al. (2005) Epilepsy Research 63:103-112
[12] = human, Oral 200 mg, Tablet, 25 healty male, Fasted, calibration, ref Shank, R.P. et al. (2005) Epilepsy Research 63:103-112
[13] = human, Oral 400 mg, Tablet, 26 healty male, Fasted, validation, ref Shank, R.P. et al. (2005) Epilepsy Research 63:103-112
[14] = Oral 500 mg tablet, Preparation A: non-shellaced core, sugar coated, fasted, 5 healthy male, calibration, ref Hart 1975
[15] = Oral 500 mg tablet, Preparation B: shellaced core, sugar coated, fasted, 5 healthy male, calibration, ref Hart 1975
[16] = Oral 500 mg tablet, Preparation C: film-coated, fasted, 5 healthy male, calibration, ref Hart 1975
[17] = human, Oral 500 mg repeat every 12 h, 2 x 250 mg tablets (Terramycin), 4 healthy male, Fasted, measured data for day 1 and day 7, validation, ref GREEN, BROWN & CALVERT, European Journal of Clinical Pharmacology (1979) 10:245-250, cited in EPA (1987)
[18] = human, Oral 500 mg, Preparation D: tablet, film-coated (Oxytetracycline hydrochloride), 5 healthy male, Fasted, calibration, ref HART, Br. J. clin. Pharmac. (1975), 2, 277-280
[19] = human, Oral 500 mg, Preparation E: Capsule (Oxytetracycline hydrochloride), 5 healthy male, Fasted, calibration, ref HART, Br. J. clin. Pharmac. (1975), 2, 277-280

Sequence of Beta-1 adrenergic receptor, ADRB1 (h) (P08588 whole entry): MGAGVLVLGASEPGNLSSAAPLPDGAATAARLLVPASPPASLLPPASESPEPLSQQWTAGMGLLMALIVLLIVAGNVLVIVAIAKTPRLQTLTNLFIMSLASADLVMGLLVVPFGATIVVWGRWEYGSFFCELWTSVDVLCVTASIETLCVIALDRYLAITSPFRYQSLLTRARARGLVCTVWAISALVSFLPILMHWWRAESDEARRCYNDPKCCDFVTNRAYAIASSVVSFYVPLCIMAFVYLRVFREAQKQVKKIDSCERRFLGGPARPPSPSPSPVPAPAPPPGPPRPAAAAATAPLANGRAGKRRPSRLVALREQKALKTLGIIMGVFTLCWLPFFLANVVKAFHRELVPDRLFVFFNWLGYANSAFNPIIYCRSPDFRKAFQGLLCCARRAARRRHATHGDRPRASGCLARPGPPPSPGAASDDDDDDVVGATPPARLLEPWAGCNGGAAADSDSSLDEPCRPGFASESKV
Sequence of Glucocorticoid receptor, NR3C1 (h) (P04150 whole entry): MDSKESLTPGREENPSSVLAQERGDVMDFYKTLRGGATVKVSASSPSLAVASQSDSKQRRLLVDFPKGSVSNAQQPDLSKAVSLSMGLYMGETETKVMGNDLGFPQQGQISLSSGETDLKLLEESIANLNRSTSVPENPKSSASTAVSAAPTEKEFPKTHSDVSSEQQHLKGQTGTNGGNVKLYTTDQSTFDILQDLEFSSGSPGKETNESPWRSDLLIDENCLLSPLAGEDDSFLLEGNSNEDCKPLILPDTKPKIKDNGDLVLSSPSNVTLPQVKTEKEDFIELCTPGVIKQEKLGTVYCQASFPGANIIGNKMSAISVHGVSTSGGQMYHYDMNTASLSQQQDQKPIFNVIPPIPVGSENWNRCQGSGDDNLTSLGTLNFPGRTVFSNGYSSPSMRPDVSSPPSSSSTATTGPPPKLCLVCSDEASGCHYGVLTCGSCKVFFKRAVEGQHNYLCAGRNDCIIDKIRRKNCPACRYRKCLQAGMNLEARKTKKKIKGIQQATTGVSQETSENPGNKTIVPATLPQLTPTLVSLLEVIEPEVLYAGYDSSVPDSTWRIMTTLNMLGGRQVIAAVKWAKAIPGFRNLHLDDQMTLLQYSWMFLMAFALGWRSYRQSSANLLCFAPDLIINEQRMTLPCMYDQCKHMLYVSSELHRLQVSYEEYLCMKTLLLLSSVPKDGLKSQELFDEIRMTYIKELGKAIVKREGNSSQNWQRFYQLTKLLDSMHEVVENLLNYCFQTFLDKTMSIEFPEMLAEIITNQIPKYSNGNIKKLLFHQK
T4 sequence (P10828 whole entry): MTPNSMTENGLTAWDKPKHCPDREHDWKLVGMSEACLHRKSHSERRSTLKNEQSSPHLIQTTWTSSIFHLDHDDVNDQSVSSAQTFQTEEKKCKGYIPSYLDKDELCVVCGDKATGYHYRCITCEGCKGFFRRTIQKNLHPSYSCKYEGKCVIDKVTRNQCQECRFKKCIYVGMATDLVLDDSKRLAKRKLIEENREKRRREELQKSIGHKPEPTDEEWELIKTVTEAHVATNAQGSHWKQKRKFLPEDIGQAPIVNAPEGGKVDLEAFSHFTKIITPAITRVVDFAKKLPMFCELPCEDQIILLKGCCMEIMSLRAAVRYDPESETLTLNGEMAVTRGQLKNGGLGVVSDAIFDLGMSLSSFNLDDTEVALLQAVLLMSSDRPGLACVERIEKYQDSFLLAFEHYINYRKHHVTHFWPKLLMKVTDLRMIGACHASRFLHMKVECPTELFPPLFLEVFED

Work on `CCOP(=S)(OCC)Oc1nc(Cl)c(Cl)cc1Cl` [Chlorpyrifos, O,O-Diethyl O-(3,5,6-trichloropyridin-2-yl) phosphorothioate] yielded a Specific binding ([1]; IPP screening at 10 uM) of -5.6%, a Specific binding [2] of 29.4% and a Specific binding [3, 10] of 0.2%. For the same compound, the Specific binding ([4]; IPP screening at 10 uM) was 5.3% and the “PoD (NOAEL)” value (dog; 2 years, inhibition of plasma and erythrocyte ChE) was 0.01 mg/kg bw/day.

In the case of `CC(C)(C)c1ccc(CCOc2ncnc3ccccc23)cc1` [Fenazaquin, 4-[2-(4-tert-Butylphenyl)ethoxy]quinazoline], the Specific binding ([1]; IPP screening at 10 uM) was 12.0%, the Specific binding [3, 10] was 0.6% and the Specific binding ([4]; IPP screening at 10 uM) was 16.5%.

In the case of `CC1(C)O[C@@H]2[C@@H](CO[C@@]3(COS(N)(=O)=O)OC(C)(C)O[C@@H]23)O1` [Topiramate, [(3aS,5aR,8aR,8bS)-2,2,7,7-Tetramethyltetrahydro-2H,3aH,7H-bis[1,3]dioxolo[4,5-b:4',5'-d]pyran-3a-yl]methyl sulfamate (non-preferred name)], the Specific binding ([1]; IPP screening at 100 uM) is given as 12.2%, the “Reported AUC0-t” value [5, 11] is given as 50540 ng·h/mL and the Reported cmax [5, 11] is given as 1.3281 µg/mL. The Reported tmax [5, 11] was 4 h, the “Reported AUC0-t” value [5, 12] was 145000 ng·h/mL and the Reported cmax [5, 12] was 3.1578 µg/mL. The Reported tmax [5, 12] was 3 h, the “Reported AUC0-t” value [5, 13] was 229000 ng·h/mL and the Reported cmax [5, 13] was 6.5205 µg/mL. For the same compound, the Reported tmax [5, 13] was 2 h, the plasma half-life ([5]; ref not given) was “over 20 h” and the “IPP screening %, Coactivator recruitment” value ([6]; 100 uM) was 0.5%. The Specific binding ([3]; IPP screening at 100 uM, control CGS 19755) was -5.1%, the “IPP screening %, Coactivator recruitment” value ([7]; 100 uM) was 2.2% and the Specific binding ([4]; IPP screening at 100 uM) was -2.9%.

In the case of “(4S,4aR,5S,5aR,6S,12aS)-4-(Dimethylamino)-3,5,6,10,12,12a-hexahydroxy-6-methyl-1,11-dioxo-1,4,4a,5,5a,6,11,12a-octahydrotetracene-2-carboxamide--hydrogen chloride (1/1) [Oxytetracycline hydrochloride]”, the “IPP screening %, Coactivator recruitment” value [8] is given as -0.1%, the “Reported AUC0-t” value [5, 14] is given as 5731 ng·h/mL and the Reported cmax [5, 14] is given as 1.2 µg/mL. For the same compound, the Reported tmax [5, 14] was 2 h, the “Reported AUC0-t” value [5, 15] was 4455 ng·h/mL and the Reported cmax [5, 15] was 0.88 µg/mL. For the same compound, the Reported tmax [5, 15] was 3 h, the “Reported AUC0-t” value [5, 16] was 7198 ng·h/mL and the Reported cmax [5, 16] was 1.43 µg/mL. The Reported tmax [5, 16] was 3 h, the “Reported AUC0-t” value [5, 17] was 79420 ng·h/mL and the Reported cmax [5, 17] was 2.25 µg/mL. The Reported tmax [5, 17] was 74 h, the “Reported AUC0-t” value [5, 18] was 8279 ng·h/mL and the Reported cmax [5, 18] was 1.51 µg/mL. The Reported tmax [5, 18] was 2 h, the “Reported AUC0-t” value [5, 19] was 7800 ng·h/mL and the Reported cmax [5, 19] was 1.45 µg/mL. For the same compound, the Reported tmax [5, 19] was 3 h, the “IPP screening %, Coactivator recruitment” value [9] was -3.0% and the Specific binding [3, 10] was 2.8%. For the same compound, the Specific binding ([4]; IPP screening at 10 uM) was 7.5% and the “PoD (NOAEL)” value (dog; 12 months (dog), 24 months (rat)) was 50 mg/kg bw/day.

In the case of “mixture of 2- and 3-tert-butyl-4-methoxyphenol [Butylated Hydroxyanisole]”, the “IPP screening %, Coactivator recruitment” value [8] was -0.1%, the Specific binding ([1]; IPP screening at 10 uM) was 8.4% and the Specific binding [2] was -0.5%. The “IPP screening %, Coactivator recruitment” value [9] was 1.0%, the “IPP screening %, Coactivator recruitment” value ([6]; 10 uM) was 0.1% and the Specific binding [3] was 2.2%. For the same compound, the “IPP screening %, Coactivator recruitment” value ([7]; 10 uM) was 4.0% and the Specific binding ([4]; IPP screening at 10 uM) was 6.3%.
